The values below are quoted from earlier work in patent US20030162803A1, “Anhydrovinblastine for the treatment of cancer” (priority 1997, published 2003).

The structures appear in SMILES notation.

For this data set the following is noted: triphasic elimination profile; cited from earlier work.

Consider `CC[C@]1(O)C[C@@H]2CN(CCc3c([nH]c4ccccc34)[C@@](C(=O)OC)(c3cc4c(cc3OC)N(C)[C@H]3[C@@](O)(C(=O)OC)[C@H](OC(C)=O)[C@]5(CC)C=CCN6CC[C@]43[C@@H]65)C2)C1` [Vinblastine], for which the initial alpha half-life entry is “less than 5 minutes”.
